# US11542304B2, “Multimeric bicyclic peptide ligands” (BicycleTx Limited, priority 2018, dated 2023)
# Target: CD137 (Homo sapiens, UniProt Q07011)
# Experiment: CD137 Promega reporter cell activity assay (NF-κB luciferase in Jurkat cells)
# Conditions: for Average Fold EC50 Improvement relative to CD137L: Average EC50 for CD137L = 14.2 nM; for Average Relative Fold Induction relative to CD137L: Average fold induction for CD137L = 4.0
# Sequence of CD137 (Q07011 24-255): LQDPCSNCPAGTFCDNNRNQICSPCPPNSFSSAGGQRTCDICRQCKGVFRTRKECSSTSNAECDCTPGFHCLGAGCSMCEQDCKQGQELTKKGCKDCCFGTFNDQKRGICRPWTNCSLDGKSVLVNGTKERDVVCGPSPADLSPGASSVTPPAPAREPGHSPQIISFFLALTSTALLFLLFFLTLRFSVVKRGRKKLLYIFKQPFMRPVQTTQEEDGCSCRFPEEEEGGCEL
structure (smiles),measurement,setting,value
CCCC[C@@H]1NC(=O)[C@H](Cc2ccc(O)cc2)NC(=O)[C@@H]2CCCN2C(=O)[C@H](CC(=O)O)NC(=O)[C@H](C)NC(=O)[C@H](Cc2ccccc2)NC(=O)[C@@H]2CSCCC(=O)N3CN(CN(C3)C(=O)CCSC[C@@H](C(=O)N[C@@H](C)C(N)=O)NC1=O)C(=O)CCSC[C@H](NC(=O)[C@H](C)NC(C)=O)C(=O)N[C@@H]([C@@H](C)CC)C(=O)N[C@@H](CCC(=O)O)C(=O)N[C@@H](CCC(=O)O)C(=O)NCC(=O)N[C@@H](CCCCNC(=O)CCc1cn(CCOCCOCCOCCOCCOCCOCCOCCOCCOCCOCCNC(=O)CCOCC(COCCC(=O)NCCOCCOCCOCCOCCOCCOCCOCCOCCOCCOCCn3cc(CCC(=O)NCCCC[C@@H]4NC(=O)CNC(=O)[C@H](CCC(=O)O)NC(=O)[C@H](CCC(=O)O)NC(=O)[C@H]([C@@H](C)CC)NC(=O)[C@@H](NC(=O)[C@H](C)NC(C)=O)CSCCC(=O)N5CN6CN(C5)C(=O)CCSC[C@H](NC(=O)[C@H](Cc5ccc(O)cc5)NC4=O)C(=O)N[C@@H](Cc4ccccc4)C(=O)N[C@@H](C)C(=O)N[C@@H](CC(=O)O)C(=O)N4CCC[C@H]4C(=O)N[C@@H](Cc4ccc(O)cc4)C(=O)N[C@@H](CCCC)C(=O)N[C@H](C(=O)N[C@@H](C)C(N)=O)CSCCC6=O)nn3)(COCCC(=O)NCCOCCOCCOCCOCCOCCOCCOCCOCCOCCOCCn3cc(CCC(=O)NCCCC[C@@H]4NC(=O)CNC(=O)[C@H](CCC(=O)O)NC(=O)[C@H](CCC(=O)O)NC(=O)[C@H]([C@@H](C)CC)NC(=O)[C@@H](NC(=O)[C@H](C)NC(C)=O)CSCCC(=O)N5CN6CN(C5)C(=O)CCSC[C@H](NC(=O)[C@H](Cc5ccc(O)cc5)NC4=O)C(=O)N[C@@H](Cc4ccccc4)C(=O)N[C@@H](C)C(=O)N[C@@H](CC(=O)O)C(=O)N4CCC[C@H]4C(=O)N[C@@H](Cc4ccc(O)cc4)C(=O)N[C@@H](CCCC)C(=O)N[C@H](C(=O)N[C@@H](C)C(N)=O)CSCCC6=O)nn3)COCCC(=O)NCCOCCOCCOCCOCCOCCOCCOCCOCCOCCOCCn3cc(CCC(=O)NCCCC[C@@H]4NC(=O)CNC(=O)[C@H](CCC(=O)O)NC(=O)[C@H](CCC(=O)O)NC(=O)[C@H]([C@@H](C)CC)NC(=O)[C@@H](NC(=O)[C@H](C)NC(C)=O)CSCCC(=O)N5CN6CN(C5)C(=O)CCSC[C@H](NC(=O)[C@H](Cc5ccc(O)cc5)NC4=O)C(=O)N[C@@H](Cc4ccccc4)C(=O)N[C@@H](C)C(=O)N[C@@H](CC(=O)O)C(=O)N4CCC[C@H]4C(=O)N[C@@H](Cc4ccc(O)cc4)C(=O)N[C@@H](CCCC)C(=O)N[C@H](C(=O)N[C@@H](C)C(N)=O)CSCCC6=O)nn3)nn1)C(=O)N[C@@H](Cc1ccc(O)cc1)C(=O)N2 [BCY7845],Average Fold EC50 Improvement relative to CD137L,,17.78
same,Average Relative Fold Induction relative to CD137L,,1.54
same,CD137 agonism / activation in reporter cells (in words),FIGS. 1 to 3 and 15,high levels of CD137 agonism
same,Average fold induction,reference substance of Table 4A / 4B,**Average fold induction for BCY7845 = 6.3
CCCC[C@@H]1NC(=O)[C@H](Cc2ccc(O)cc2)NC(=O)[C@@H]2CCCN2C(=O)[C@H](CC(=O)O)NC(=O)[C@H](C)NC(=O)[C@H](Cc2ccccc2)NC(=O)[C@@H]2CSCCC(=O)N3CN(CN(C3)C(=O)CCSC[C@@H](C(=O)N[C@@H](C)C(N)=O)NC1=O)C(=O)CCSC[C@H](NC(=O)[C@H](C)NC(C)=O)C(=O)N[C@@H]([C@@H](C)CC)C(=O)N[C@@H](CCC(=O)O)C(=O)N[C@@H](CCC(=O)O)C(=O)N[C@H](CCCCNC(=O)OCC1C3CCc4nnn(CCOCCOCCOCCOCCOCCOCCOCCOCCOCCOCCNC(=O)CCOCCN(CCOCCC(=O)NCCOCCOCCOCCOCCOCCOCCOCCOCCOCCOCCn5nnc6c5CCC5C(CC6)C5COC(=O)NCCCC[C@H]5NC(=O)[C@H](CCC(=O)O)NC(=O)[C@H](CCC(=O)O)NC(=O)[C@H]([C@@H](C)CC)NC(=O)[C@@H](NC(=O)[C@H](C)NC(C)=O)CSCCC(=O)N6CN7CN(C6)C(=O)CCSC[C@H](NC(=O)[C@H](Cc6ccc(O)cc6)NC(=O)[C@H](CCC(N)=O)NC5=O)C(=O)N[C@@H](Cc5ccccc5)C(=O)N[C@@H](C)C(=O)N[C@@H](CC(=O)O)C(=O)N5CCC[C@H]5C(=O)N[C@@H](Cc5ccc(O)cc5)C(=O)N[C@@H](CCCC)C(=O)N[C@H](C(=O)N[C@@H](C)C(N)=O)CSCCC7=O)CCOCCC(=O)NCCOCCOCCOCCOCCOCCOCCOCCOCCOCCOCCn5nnc6c5CCC5C(CC6)C5COC(=O)NCCCC[C@H]5NC(=O)[C@H](CCC(=O)O)NC(=O)[C@H](CCC(=O)O)NC(=O)[C@H]([C@@H](C)CC)NC(=O)[C@@H](NC(=O)[C@H](C)NC(C)=O)CSCCC(=O)N6CN7CN(C6)C(=O)CCSC[C@H](NC(=O)[C@H](Cc6ccc(O)cc6)NC(=O)[C@H](CCC(N)=O)NC5=O)C(=O)N[C@@H](Cc5ccccc5)C(=O)N[C@@H](C)C(=O)N[C@@H](CC(=O)O)C(=O)N5CCC[C@H]5C(=O)N[C@@H](Cc5ccc(O)cc5)C(=O)N[C@@H](CCCC)C(=O)N[C@H](C(=O)N[C@@H](C)C(N)=O)CSCCC7=O)c4CCC31)C(=O)N[C@@H](CCC(N)=O)C(=O)N[C@@H](Cc1ccc(O)cc1)C(=O)N2 (stereo partly shown) [BCY8102],Average Fold EC50 Improvement relative to CD137L,,41.27
same,Average Relative Fold Induction relative to CD137L,,0.91
CCCC[C@@H]1NC(=O)[C@H](Cc2ccc(O)cc2)NC(=O)[C@@H]2CCCN2C(=O)[C@H](CC(=O)O)NC(=O)[C@H](C)NC(=O)[C@H](Cc2ccccc2)NC(=O)[C@@H]2CSCCC(=O)N3CN(CN(C3)C(=O)CCSC[C@@H](C(=O)N[C@@H](C)C(N)=O)NC1=O)C(=O)CCSC[C@H](NC(=O)[C@H](C)NC(C)=O)C(=O)N[C@@H]([C@@H](C)CC)C(=O)N[C@@H](CCC(=O)O)C(=O)N[C@@H](CCC(=O)O)C(=O)N[C@H](CCCCNC(=O)OCC1C3CCc4nnn(CCOCCOCCOCCOCCOCCOCCOCCOCCOCCOCCOCCOCCOCCOCCOCCOCCOCCOCCOCCOCCOCCOCCOCCNC(=O)CCOCCN(CCOCCC(=O)NCCOCCOCCOCCOCCOCCOCCOCCOCCOCCOCCOCCOCCOCCOCCOCCOCCOCCOCCOCCOCCOCCOCCOCCn5nnc6c5CCC5C(CC6)C5COC(=O)NCCCC[C@H]5NC(=O)[C@H](CCC(=O)O)NC(=O)[C@H](CCC(=O)O)NC(=O)[C@H]([C@@H](C)CC)NC(=O)[C@@H](NC(=O)[C@H](C)NC(C)=O)CSCCC(=O)N6CN7CN(C6)C(=O)CCSC[C@H](NC(=O)[C@H](Cc6ccc(O)cc6)NC(=O)[C@H](CCC(N)=O)NC5=O)C(=O)N[C@@H](Cc5ccccc5)C(=O)N[C@@H](C)C(=O)N[C@@H](CC(=O)O)C(=O)N5CCC[C@H]5C(=O)N[C@@H](Cc5ccc(O)cc5)C(=O)N[C@@H](CCCC)C(=O)N[C@H](C(=O)N[C@@H](C)C(N)=O)CSCCC7=O)CCOCCC(=O)NCCOCCOCCOCCOCCOCCOCCOCCOCCOCCOCCOCCOCCOCCOCCOCCOCCOCCOCCOCCOCCOCCOCCOCCn5nnc6c5CCC5C(CC6)C5COC(=O)NCCCC[C@H]5NC(=O)[C@H](CCC(=O)O)NC(=O)[C@H](CCC(=O)O)NC(=O)[C@H]([C@@H](C)CC)NC(=O)[C@@H](NC(=O)[C@H](C)NC(C)=O)CSCCC(=O)N6CN7CN(C6)C(=O)CCSC[C@H](NC(=O)[C@H](Cc6ccc(O)cc6)NC(=O)[C@H](CCC(N)=O)NC5=O)C(=O)N[C@@H](Cc5ccccc5)C(=O)N[C@@H](C)C(=O)N[C@@H](CC(=O)O)C(=O)N5CCC[C@H]5C(=O)N[C@@H](Cc5ccc(O)cc5)C(=O)N[C@@H](CCCC)C(=O)N[C@H](C(=O)N[C@@H](C)C(N)=O)CSCCC7=O)c4CCC31)C(=O)N[C@@H](CCC(N)=O)C(=O)N[C@@H](Cc1ccc(O)cc1)C(=O)N2 (stereo partly shown) [BCY8103],Average Fold EC50 Improvement relative to CD137L,,188.34
same,Average Relative Fold Induction relative to CD137L,,0.91
CCCC[C@@H]1NC(=O)[C@H](Cc2ccc(O)cc2)NC(=O)[C@@H]2CCCN2C(=O)[C@H](CC(=O)O)NC(=O)[C@H](C)NC(=O)[C@H](Cc2ccccc2)NC(=O)[C@@H]2CSCCC(=O)N3CN(CN(C3)C(=O)CCSC[C@@H](C(=O)N[C@@H](C)C(N)=O)NC1=O)C(=O)CCSC[C@H](NC(=O)[C@H](C)NC(C)=O)C(=O)N[C@@H]([C@@H](C)CC)C(=O)N[C@@H](CCC(=O)O)C(=O)N[C@@H](CCC(=O)O)C(=O)N[C@H](CCCCNC(=O)OCC1C3CCc4nnn(CCOCCOCCOCCOCCOCCOCCOCCOCCOCCOCCNC(=O)CCOCC(COCCC(=O)NCCOCCOCCOCCOCCOCCOCCOCCOCCOCCOCCn5nnc6c5CCC5C(CC6)C5COC(=O)NCCCC[C@H]5NC(=O)[C@H](CCC(=O)O)NC(=O)[C@H](CCC(=O)O)NC(=O)[C@H]([C@@H](C)CC)NC(=O)[C@@H](NC(=O)[C@H](C)NC(C)=O)CSCCC(=O)N6CN7CN(C6)C(=O)CCSC[C@H](NC(=O)[C@H](Cc6ccc(O)cc6)NC(=O)[C@H](CCC(N)=O)NC5=O)C(=O)N[C@@H](Cc5ccccc5)C(=O)N[C@@H](C)C(=O)N[C@@H](CC(=O)O)C(=O)N5CCC[C@H]5C(=O)N[C@@H](Cc5ccc(O)cc5)C(=O)N[C@@H](CCCC)C(=O)N[C@H](C(=O)N[C@@H](C)C(N)=O)CSCCC7=O)(COCCC(=O)NCCOCCOCCOCCOCCOCCOCCOCCOCCOCCOCCn5nnc6c5CCC5C(CC6)C5COC(=O)NCCCC[C@H]5NC(=O)[C@H](CCC(=O)O)NC(=O)[C@H](CCC(=O)O)NC(=O)[C@H]([C@@H](C)CC)NC(=O)[C@@H](NC(=O)[C@H](C)NC(C)=O)CSCCC(=O)N6CN7CN(C6)C(=O)CCSC[C@H](NC(=O)[C@H](Cc6ccc(O)cc6)NC(=O)[C@H](CCC(N)=O)NC5=O)C(=O)N[C@@H](Cc5ccccc5)C(=O)N[C@@H](C)C(=O)N[C@@H](CC(=O)O)C(=O)N5CCC[C@H]5C(=O)N[C@@H](Cc5ccc(O)cc5)C(=O)N[C@@H](CCCC)C(=O)N[C@H](C(=O)N[C@@H](C)C(N)=O)CSCCC7=O)COCCC(=O)NCCOCCOCCOCCOCCOCCOCCOCCOCCOCCOCCn5nnc6c5CCC5C(CC6)C5COC(=O)NCCCC[C@H]5NC(=O)[C@H](CCC(=O)O)NC(=O)[C@H](CCC(=O)O)NC(=O)[C@H]([C@@H](C)CC)NC(=O)[C@@H](NC(=O)[C@H](C)NC(C)=O)CSCCC(=O)N6CN7CN(C6)C(=O)CCSC[C@H](NC(=O)[C@H](Cc6ccc(O)cc6)NC(=O)[C@H](CCC(N)=O)NC5=O)C(=O)N[C@@H](Cc5ccccc5)C(=O)N[C@@H](C)C(=O)N[C@@H](CC(=O)O)C(=O)N5CCC[C@H]5C(=O)N[C@@H](Cc5ccc(O)cc5)C(=O)N[C@@H](CCCC)C(=O)N[C@H](C(=O)N[C@@H](C)C(N)=O)CSCCC7=O)c4CCC31)C(=O)N[C@@H](CCC(N)=O)C(=O)N[C@@H](Cc1ccc(O)cc1)C(=O)N2 (stereo partly shown) [BCY8104],Average Fold EC50 Improvement relative to CD137L,,103.27
same,Average Relative Fold Induction relative to CD137L,,1.65
